# How the values were obtained:
# Format in all cases: functional
# [1] = tested on: HT-29; assay: Growth inhibition of human HT-29 cells assessed as cell growth at 5X10'-9 M after 48 hrs by sulforhodamine B assay; settings: HT-29, 48 h, read-out: Activity
# [2] = Growth inhibition of human HCC2998 cells assessed as cell growth at 5X10'-9 M after 48 hrs by sulforhodamine B assay; settings: HCC 2998, 48 h, read-out: Activity
# [3] = tested on: NCI-H23; assay: Growth inhibition of human NCI-H23 cells assessed as cell growth at 5X10'-5 M after 48 hrs by sulforhodamine B assay; settings: NCI-H23, 48 h, read-out: Activity
# [4] = tested on: K562; assay: Growth inhibition of human K562 cells assessed as cell growth at 5X10'-5 M after 48 hrs by sulforhodamine B assay; settings: K562, 48 h, read-out: Activity
# [5] = tested on: MDA-MB-468; assay: Growth inhibition of human MDA-MB-468 cells assessed as cell growth at 5X10'-6 M after 48 hrs by sulforhodamine B assay; settings: MDA-MB-468, 48 h, read-out: Activity
# [6] = tested on: RXF 393; assay: Growth inhibition of human RXF393 cells assessed as cell growth at 5X10'-6 M after 48 hrs by sulforhodamine B assay; settings: RXF 393, 48 h, read-out: Activity
# [7] = tested on: CAKI-1; assay: Growth inhibition of human CAKI-1 cells assessed as cell growth at 5X10'-6 M after 48 hrs by sulforhodamine B assay; settings: CAKI-1, 48 h, read-out: Activity
# [8] = tested on: ACHN; assay: Growth inhibition of human ACHN cells assessed as cell growth at 5X10'-6 M after 48 hrs by sulforhodamine B assay; settings: read-out: Activity
# [9] = tested on: OVCAR-8; assay: Growth inhibition of human OVCAR8 cells assessed as cell growth at 5X10'-6 M after 48 hrs by sulforhodamine B assay; settings: OVCAR-8, 48 h, read-out: Activity
# [10] = tested on: OVCAR-5; assay: Growth inhibition of human OVCAR5 cells assessed as cell growth at 5X10'-6 M after 48 hrs by sulforhodamine B assay; settings: OVCAR-5, 48 h, read-out: Activity
# [11] = tested on: IGROV-1; assay: Growth inhibition of human IGROV1 cells assessed as cell growth at 5X10'-6 M after 48 hrs by sulforhodamine B assay; settings: IGROV-1, 48 h, read-out: Activity
# [12] = tested on: UACC-257; assay: Growth inhibition of human UACC257 cells assessed as cell growth at 5X10'-6 M after 48 hrs by sulforhodamine B assay; settings: UACC-257, 48 h, read-out: Activity
# [13] = tested on: SK-MEL-2; assay: Growth inhibition of human SK-MEL-2 cells assessed as cell growth at 5X10'-6 M after 48 hrs by sulforhodamine B assay; settings: SK-MEL-2, 48 h, read-out: Activity
# [14] = tested on: NCI-H23; assay: Growth inhibition of human NCI-H23 cells assessed as cell growth at 5X10'-9 M after 48 hrs by sulforhodamine B assay; settings: NCI-H23, 48 h, read-out: Activity
# [15] = tested on: RPMI-8226; assay: Growth inhibition of human RPMI8226 cells assessed as cell growth at 5X10'-9 M after 48 hrs by sulforhodamine B assay; settings: RPMI-8226, 48 h, read-out: Activity
# [16] = tested on: MOLT-4; assay: Growth inhibition of human MOLT4 cells assessed as cell growth at 5X10'-9 M after 48 hrs by sulforhodamine B assay; settings: MOLT-4, 48 h, read-out: Activity
# [17] = tested on: CCRF-CEM; assay: Growth inhibition of human CCRF-CEM cells assessed as cell growth at 5X10'-9 M after 48 hrs by sulforhodamine B assay; settings: read-out: Activity
# [18] = tested on: SF-268; assay: Growth inhibition of human SF268 cells assessed as cell growth at 5X10'-6 M after 48 hrs by sulforhodamine B assay; settings: SF-268, 48 h, read-out: Activity
# [19] = tested on: MOLT-4; assay: Growth inhibition of human MOLT4 cells assessed as cell growth at 5X10'-6 M after 48 hrs by sulforhodamine B assay; settings: MOLT-4, 48 h, read-out: Activity
# [20] = Growth inhibition of human Hs 578T cells assessed as cell growth at 5X10'-7 M after 48 hrs by sulforhodamine B assay; settings: read-out: Activity
# [21] = tested on: MCF7; assay: Growth inhibition of human MCF7 cells assessed as cell growth at 5X10'-7 M after 48 hrs by sulforhodamine B assay; settings: MCF7, 48 h, read-out: Activity
# [22] = tested on: SK-MEL-28; assay: Growth inhibition of human SK-MEL-28 cells assessed as cell growth at 5X10'-7 M after 48 hrs by sulforhodamine B assay; settings: SK-MEL-28, 48 h, read-out: Activity
# [23] = tested on: LOX IMVI; assay: Growth inhibition of human LOXIMVI cells assessed as cell growth at 5X10'-7 M after 48 hrs by sulforhodamine B assay; settings: read-out: Activity
# [24] = tested on: SNB-75; assay: Growth inhibition of human SNB75 cells assessed as cell growth at 5X10'-7 M after 48 hrs by sulforhodamine B assay; settings: SNB-75, 48 h, read-out: Activity
# [25] = tested on: NCI-H322M; assay: Growth inhibition of human NCI-H322M cells assessed as cell growth at 5X10'-7 M after 48 hrs by sulforhodamine B assay; settings: read-out: Activity
# [26] = tested on: K562; assay: Growth inhibition of human K562 cells assessed as cell growth at 5X10'-7 M after 48 hrs by sulforhodamine B assay; settings: K562, 48 h, read-out: Activity
# [27] = tested on: MDA-MB-231; assay: Growth inhibition of human MDA-MB-231 cells assessed as cell growth at 5X10'-8 M after 48 hrs by sulforhodamine B assay; settings: MDA-MB-231, 48 h, read-out: Activity
# [28] = tested on: LOX IMVI; assay: Growth inhibition of human LOXIMVI cells assessed as cell growth at 5X10'-8 M after 48 hrs by sulforhodamine B assay; settings: read-out: Activity
# [29] = tested on: UO-31; assay: Growth inhibition of human UO31 cells assessed as cell growth at 5X10'-5 M after 48 hrs by sulforhodamine B assay; settings: UO-31, 48 h, read-out: Activity
# [30] = tested on: OVCAR-5; assay: Growth inhibition of human OVCAR5 cells assessed as cell growth at 5X10'-5 M after 48 hrs by sulforhodamine B assay; settings: OVCAR-5, 48 h, read-out: Activity
# [31] = tested on: SK-MEL-2; assay: Growth inhibition of human SK-MEL-2 cells assessed as cell growth at 5X10'-5 M after 48 hrs by sulforhodamine B assay; settings: SK-MEL-2, 48 h, read-out: Activity
# [32] = tested on: SK-OV-3; assay: Growth inhibition of human SKOV3 cells assessed as cell growth at 5X10'-9 M after 48 hrs by sulforhodamine B assay; settings: SK-OV-3, 48 h, read-out: Activity
# [33] = tested on: OVCAR-5; assay: Growth inhibition of human OVCAR5 cells assessed as cell growth at 5X10'-9 M after 48 hrs by sulforhodamine B assay; settings: OVCAR-5, 48 h, read-out: Activity
# [34] = tested on: OVCAR-8; assay: Growth inhibition of human OVCAR8 cells assessed as cell growth at 5X10'-9 M after 48 hrs by sulforhodamine B assay; settings: OVCAR-8, 48 h, read-out: Activity
# [35] = tested on: UACC-257; assay: Growth inhibition of human UACC257 cells assessed as cell growth at 5X10'-9 M after 48 hrs by sulforhodamine B assay; settings: UACC-257, 48 h, read-out: Activity
# [36] = tested on: SF-539; assay: Growth inhibition of human SF539 cells assessed as cell growth at 5X10'-9 M after 48 hrs by sulforhodamine B assay; settings: SF-539, 48 h, read-out: Activity
# [37] = tested on: SNB-19; assay: Growth inhibition of human SNB19 cells assessed as cell growth at 5X10'-9 M after 48 hrs by sulforhodamine B assay; settings: SNB-19, 48 h, read-out: Activity
smiles,measurement,setting,value
COc1cc(-c2nn(-c3cccc(NC(=O)Nc4cc(C(F)(F)F)cc(C(F)(F)F)c4)c3)cc2-c2ccncc2)ccc1Cl,growth at 0.005 µM,[1],110%
same,growth at 0.005 µM,[2],102%
same,growth at 50 µM,[3],-59%
same,growth at 50 µM,[4],-16%
same,growth at 5 µM,[5],-42%
same,growth at 5 µM,[6],-51%
same,growth at 5 µM,[7],-20%
same,growth at 5 µM,[8],2%
same,growth at 5 µM,[9],-6%
same,growth at 5 µM,[10],-36%
same,growth at 5 µM,[11],-42%
same,growth at 5 µM,[12],-40%
same,growth at 5 µM,[13],-73%
same,growth at 0.005 µM,[14],99%
same,growth at 0.005 µM,[15],99%
same,growth at 0.005 µM,[16],104%
same,growth at 0.005 µM,[17],101%
same,growth at 5 µM,[18],-40%
same,growth at 5 µM,[19],-4%
same,growth at 0.5 µM,[20],79%
same,growth at 0.5 µM,[21],68%
same,growth at 0.5 µM,[22],89%
same,growth at 0.5 µM,[23],84%
same,growth at 0.5 µM,[24],81%
same,growth at 0.5 µM,[25],83%
same,growth at 0.5 µM,[26],42%
same,growth at 0.05 µM,[27],95%
same,growth at 0.05 µM,[28],105%
same,growth at 50 µM,[29],-93%
same,growth at 50 µM,[30],-72%
same,growth at 50 µM,[31],-84%
same,growth at 0.005 µM,[32],102%
same,growth at 0.005 µM,[33],87%
same,growth at 0.005 µM,[34],101%
same,growth at 0.005 µM,[35],94%
same,growth at 0.005 µM,[36],88%
same,growth at 0.005 µM,[37],95%
